Experimental data: patent US20150141381A1, “TETRACYCLINE COMPOUNDS HAVING TARGET THERAPEUTIC ACTIVITIES” (Paratek Pharmaceuticals, Inc., priority 2001, published 2015)
Read-outs that look alike come from different tables or passages of the source.

Legend:
S. aureus RN450 = test: In Vitro Anti-Bacterial Activity Assay (MIC), gram positive; type: cell-based; settings: for MIC: Staphylococcus aureus, RN450, 18 h
E. coli mL308 225 = test: In Vitro Anti-Bacterial Activity Assay (MIC), gram negative; type: cell-based; settings: for MIC: Escherichia coli, ML308225, 18 h
[1] = gram positive bacteria, read-out: Antibiotic Activity Gram + (MIC)
[2] = gram negative bacteria, read-out: Antibiotic Activity Gram − (MIC)
[3] = MIC class, Table 3, read-out: Antibiotic Activity Gram +
[4] = MIC class, Table 3, read-out: Antibiotic Activity Gram −
[5] = MIC class, Table 3 (Continued), read-out: Gram+ activity
[6] = MIC class, Table 3 (Continued), read-out: Gram− activity

SMILES	MIC (S. aureus RN450; [1]) [µg/mL]	MIC (E. coli mL308 225; [2]) [µg/mL]	MIC (S. aureus RN450; [3]) [µg/mL]	MIC (E. coli mL308 225; [4]) [µg/mL]	also measured
CN(C)c1cc(CNc2ccccn2)c(O)c2c1C[C@H]1C[C@H]3[C@H](N(C)C)C(O)=C(C(N)=O)C(=O)[C@@]3(O)C(O)=C1C2=O	< 4	> 4	–	–	–
CN(C)c1cc(CNCc2cc(F)c(F)c(F)c2)c(O)c2c1C[C@H]1C[C@H]3[C@H](N(C)C)C(O)=C(C(N)=O)C(=O)[C@@]3(O)C(O)=C1C2=O	< 4	< 4	–	–	–
Cc1noc(C)c1S(=O)(=O)Nc1ccc2c(c1O)C(=O)C1=C(O)[C@]3(O)C(=O)C(C(N)=O)=C(O)[C@@H](N(C)C)[C@@H]3C[C@@H]1C2 [IP]	–	–	< 4	> 4	–
CN(C)[C@@H]1C(O)=C(C(N)=O)C(=O)[C@@]2(O)C(O)=C3C(=O)c4c(O)cc(Cl)c(N)c4C[C@H]3C[C@@H]12	> 4	> 4	–	–	–
CN(C)[C@@H]1C(O)=C(C(N)=O)C(=O)[C@@]2(O)C(O)=C3C(=O)c4c(O)ccc(C#Cc5ccc(N)cc5)c4C[C@H]3C[C@@H]12 [BE]	–	–	< 4	> 4	–
CN(C)[C@H]1C(O)=C(C(N)=O)C(=O)[C@@]2(O)C(O)=C3C(=O)c4c(O)ccc(-c5ccc(/N=C\NC(C)(C)C)cc5)c4C[C@H]3C[C@@H]12 [GU]	–	–	< 4	< 4	–
CN(C)[C@@H]1C(O)=C(C(N)=O)C(=O)[C@@]2(O)C(O)=C3C(=O)c4c(O)ccc(Br)c4C[C@H]3C[C@@H]12	–	–	–	–	MIC (S. aureus RN450; [5]): < 4 µg/mL; MIC (E. coli mL308 225; [6]): < 4 µg/mL
CN(C)[C@@H]1C(O)=C(C(N)=O)C(=O)[C@@]2(O)C(O)=C3C(=O)c4c(O)cccc4/C(=C\c4ccc(C(F)(F)F)cc4)[C@H]3[C@H](O)[C@@H]12 [AC]	–	–	< 4	> 4	–
CN(C)[C@@H]1C(O)=C(C(N)=O)C(=O)[C@@]2(O)C(O)=C3C(=O)c4c(O)ccc(C#CCCC#Cc5ccc(O)c6c5C[C@H]5C[C@H]7[C@H](N(C)C)C(O)=C(C(N)=O)C(=O)[C@@]7(O)C(O)=C5C6=O)c4C[C@H]3C[C@@H]12 [FM]	–	–	> 4	> 4	–
CN(C)[C@@H]1C(O)=C(C(N)=O)C(=O)[C@@]2(O)C(O)=C3C(=O)c4c(O)c(CN)cc(-c5ccc(F)cc5)c4C[C@H]3C[C@@H]12 [DF]	–	–	< 4	> 4	–
CN(C)/C=N/c1ccc(O)c2c1C[C@H]1C[C@H]3[C@@H](N(C)C)C(O)=C(C(N)=O)C(=O)[C@@]3(O)C(O)=C1C2=O [QC]	–	–	< 4	< 4	–
CCCCCC(=O)c1ccc(O)c2c1C[C@H]1C[C@H]3[C@H](N(C)C)C(O)=C(C(N)=O)C(=O)[C@@]3(O)C(O)=C1C2=O	< 4	< 4	–	–	–
CC#Cc1ccc(O)c2c1C[C@H]1C[C@H]3[C@H](N(C)C)C(O)=C(C(N)=O)C(=O)[C@@]3(O)C(O)=C1C2=O	–	–	–	–	MIC (S. aureus RN450; [5]): < 4 µg/mL; MIC (E. coli mL308 225; [6]): < 4 µg/mL
CN[C@@]12C(=O)C(C(N)=O)=C(O)[C@@H](N(C)C)[C@@H]1[C@@H](OC)[C@H]1C(=C2O)C(=O)c2c(O)cccc2[C@@H]1C	> 4	> 4	–	–	–
CN(C)[C@@H]1C(O)=C(C(N)=O)C(=O)[C@@]2(O)C(O)=C3C(=O)c4c(O)ccc(CN5CCCCC5)c4C[C@H]3C[C@@H]12 [KJ]	–	–	< 4	< 4	–
CN(C)[C@@H]1C(O)=C(C(N)=O)C(=O)[C@@]2(O)C(O)=C3C(=O)c4c(O)c(CNCC(C)(C)C)cc(-c5ccccn5)c4C[C@H]3C[C@@H]12	< 4	> 4	–	–	–
CON(C)CC(=O)Nc1ccc(-c2ccc(O)c3c2C[C@H]2C[C@H]4[C@@H](N(C)C)C(O)=C(C(N)=O)C(=O)[C@@]4(O)C(O)=C2C3=O)cc1 [PN]	–	–	< 4	> 4	–
CCC(C)CNCc1ccc(O)c2c1C[C@H]1C[C@H]3[C@H](N(C)C)C(O)=C(C(N)=O)C(=O)[C@@]3(O)C(O)=C1C2=O (stereo partly drawn) [KE]	–	–	< 4	< 4	–
CCCOc1cccc2c1C(=O)C1=C(O)[C@]3(O)C(=O)C(C(N)=O)=C(O)[C@@H](N(C)C)[C@@H]3C[C@@H]1C2 [drawing 3578]	> 4	> 4	–	–	–
CN(C)c1cc(NC(=O)Nc2ccc(Cl)cc2[N+](=O)O)c(O)c2c1C[C@H]1C[C@H]3[C@H](N(C)C)C(O)=C(C(N)=O)C(=O)[C@@]3(O)C(O)=C1C2=O [DC]	–	–	< 4	> 4	–
CN(C)c1cc(CN2CCCCC2)c(O)c2c1C[C@H]1C[C@H]3C(N(C)C)C(O)=C(C(N)=O)C(=O)[C@@]3(O)C(O)=C1C2=O (stereo partly drawn)	–	–	–	–	MIC (S. aureus RN450; [5]): < 4 µg/mL; MIC (E. coli mL308 225; [6]): > 4 µg/mL
CCCN(C)Cc1cc(N(C)C)c2c(c1O)C(=O)C1=C(O)[C@]3(O)C(=O)C(C(N)=O)=C(O)[C@@H](N(C)C)[C@@H]3C[C@@H]1C2	< 4	> 4	–	–	–
CN(C)c1cc(CNCC2CCNCC2)c(O)c2c1C[C@H]1C[C@H]3[C@H](N(C)C)C(O)=C(C(N)=O)C(=O)[C@@]3(O)C(O)=C1C2=O	> 4	> 4	–	–	–

SMILES	MIC (S. aureus RN450; [1]) [µg/mL]	MIC (E. coli mL308 225; [2]) [µg/mL]	MIC (S. aureus RN450; [3]) [µg/mL]	MIC (E. coli mL308 225; [4]) [µg/mL]	also measured
COc1ccc(CNCC(C)C)cc1-c1ccc(O)c2c1C[C@H]1C[C@H]3[C@H](N(C)C)C(O)=C(C(N)=O)C(=O)[C@@]3(O)C(O)=C1C2=O [EG]	–	–	< 4	< 4	–
CN(C)CCNC(=O)c1ccc(-c2ccc(O)c3c2C[C@H]2C[C@H]4[C@H](N(C)C)C(O)=C(C(N)=O)C(=O)[C@@]4(O)C(O)=C2C3=O)cc1	< 4	> 4	–	–	–
CCCN1CCC(Nc2ccc3c(c2O)C(=O)C2=C(O)[C@]4(O)C(=O)C(C(N)=O)=C(O)[C@@H](N(C)C)[C@@H]4[C@@H](O)[C@@H]2[C@H]3C)CC1 [KX]	–	–	< 4	< 4	–
Cc1csc(NCc2cc(N(C)C)c3c(c2O)C(=O)C2=C(O)[C@]4(O)C(=O)C(C(N)=O)=C(O)C(N(C)C)[C@@H]4C[C@@H]2C3)n1 (stereo partly drawn) [MS]	–	–	< 4	> 4	–
CN(C)[C@@H]1C(O)=C(C(N)=O)C(=O)[C@@]2(O)C(O)=C3C(=O)c4c(O)c(N)cc(-c5ccccn5)c4C[C@H]3C[C@@H]12	< 4	> 4	–	–	–
CC(=O)c1ccc(-c2ccc3c(c2O)C(=O)C2=C(O)[C@]4(O)C(=O)C(C(N)=O)=C(O)[C@@H](N(C)C)[C@@H]4[C@@H](O)[C@@H]2[C@H]3C)cc1	< 4	< 4	–	–	–
CC(=O)c1cc(C(C)(C)C)c(O)c2c1C[C@H]1C[C@H]3[C@H](N(C)C)C(O)=C(C(N)=O)C(=O)[C@@]3(O)C(O)=C1C2=O	< 4	< 4	–	–	–
CN(C)CCN(Cc1ccccc1)Cc1ccc(-c2cc(N(C)C)c3c(c2O)C(=O)C2=C(O)[C@]4(O)C(=O)C(C(N)=O)=C(O)[C@@H](N(C)C)[C@@H]4C[C@@H]2C3)o1	> 4	> 4	–	–	–
CN(C)c1cc(NC(=S)Nc2cccc3ccccc23)c(O)c2c1C[C@H]1C[C@H]3[C@H](N(C)C)C(O)=C(C(N)=O)C(=O)[C@@]3(O)C(O)=C1C2=O [CA]	–	–	< 4	> 4	–
CN(C)c1cc(CNC2CCCC2)c(O)c2c1C[C@H]1C[C@H]3[C@H](N(C)C)C(O)=C(C(N)=O)C(=O)[C@@]3(O)C(O)=C1C2=O	< 4	> 4	–	–	–
CC1c2c(-c3ccc(Cl)cc3)ccc(O)c2C(=O)C2=C(O)[C@]3(O)C(=O)C(C(N)=O)=C(O)[C@@H](N(C)C)[C@@H]3[C@@H](O)[C@@H]21 (stereo partly drawn)	–	–	–	–	MIC (S. aureus RN450; [5]): < 4 µg/mL; MIC (E. coli mL308 225; [6]): < 4 µg/mL
CCOC(=O)CNCc1ccc(-c2ccc(O)c3c2C[C@H]2C[C@H]4[C@H](N(C)C)C(O)=C(C(N)=O)C(=O)[C@@]4(O)C(O)=C2C3=O)c2ccccc12	< 4	< 4	–	–	–
CCCOc1cccc2c1C(=O)C1=C(O)[C@]3(O)C(=O)C(C(N)=O)=C(O)[C@@H](N(C)C)[C@@H]3C[C@@H]1C2 [drawing 3586]	–	–	–	–	Antibiotic Activity Gram + (MIC) (S. aureus RN450; gram positive bacteria): * (compounds with an MIC of greater than 4 μg/ml are indicated with *); Antibiotic Activity Gram − (MIC) (E. coli mL308 225; gram negative bacteria): * (compounds with an MIC of greater than 4 μg/ml are indicated with *)
CN(C)Cc1ccc(-c2ccc(O)c3c2C[C@H]2C[C@H]4C(N(C)C)C(O)=C(C(N)=O)C(=O)[C@@]4(O)C(O)=C2C3=O)cc1 (stereo partly drawn)	–	–	–	–	MIC (S. aureus RN450; [5]): < 4 µg/mL; MIC (E. coli mL308 225; [6]): < 4 µg/mL
CN1CCN(Cc2ccc(-c3ccc(O)c4c3C[C@H]3C[C@H]5[C@H](N(C)C)C(O)=C(C(N)=O)C(=O)[C@@]5(O)C(O)=C3C4=O)cc2)CC1 [MF]	–	–	< 4	< 4	–
CN(C)c1cc(NCc2ccc(O)c(O)c2)c(O)c2c1C[C@H]1C[C@H]3[C@H](N(C)C)C(O)=C(C(N)=O)C(=O)[C@@]3(O)C(O)=C1C2=O	< 4	> 4	–	–	–
CN(C)c1cc(-c2ccc(OC(F)(F)F)cc2)c(O)c2c1C[C@H]1C[C@H]3[C@H](N(C)C)C(O)=C(C(N)=O)C(=O)[C@@]3(O)C(O)=C1C2=O [EK]	–	–	< 4	> 4	–
CN(C)[C@@H]1C(O)=C(C(N)=O)C(=O)[C@@]2(O)C(O)=C3C(=O)c4c(O)ccc(C5C=CCC5)c4C[C@H]3C[C@@H]12 (stereo partly drawn)	–	–	–	–	MIC (S. aureus RN450; [5]): < 4 µg/mL; MIC (E. coli mL308 225; [6]): < 4 µg/mL
COc1ccc(CNC2CCCCC2)cc1-c1ccc(O)c2c1C[C@H]1C[C@H]3[C@H](N(C)C)C(O)=C(C(N)=O)C(=O)[C@@]3(O)C(O)=C1C2=O [I]	–	–	< 4	< 4	–
CN(C)[C@@H]1C(O)=C(C(N)=O)C(=O)[C@@]2(O)C(O)=C3C(=O)c4c(ccc(N)c4O)C[C@H]3C[C@@H]12 [JU]	–	–	< 4	< 4	–
CN(C)CCCc1ccc(O)c2c1C[C@H]1C[C@H]3[C@H](N(C)C)C(O)=C(C(N)=O)C(=O)[C@@]3(O)C(O)=C1C2=O [BQ]	–	–	< 4	> 4	–
CN(C)[C@@H]1C(O)=C(C(N)=O)C(=O)[C@@]2(O)C(O)=C3C(=O)c4c(O)ccc(/C=C/c5ccc(N)cc5)c4C[C@H]3C[C@@H]12 [AY]	–	–	< 4	> 4	–
